According to article PMC11395333, “The Bifunctional Dimer Caffeine-Indan Attenuates α-Synuclein Misfolding, Neurodegeneration and Behavioral Deficits after Chronic Stimulation of Adenosine A1 Receptors” (International Journal of Molecular Sciences, 2024):

How the values were obtained:
α-Syn = test system: α-Syn; set-up: method as in PMID 35139916; conditions: co-administration with CPA; cited from earlier work
[1] = In vivo metabolic stability, radio-HPLC of tissue extracts; set-up: species or system CD-1 mice; conditions: liver and pancreas extracts, 40 min p.i.
Procedure: The liver, pancreas, and brain were collected, washed with saline, placed in water/acetonitrile, and homogenized using the Fisherbrand™ 150 Handheld Homogenizer (Thermo Fisher Scientific, Waltham, MA, USA). The samples were centrifuged at 14,000 relative centrifugal force (rcf) for 5 min (AccuSpin Micro 17, Thermo Fisher Scientific, Waltham, MA, USA). The supernatants were collected and filtered using 0.22 μm organic Millipore-Sigma filters (Oakville, ON, Canada). The clarified filtrate was injected into the HPLC and radioanalytes separated by a reverse phase column (5 μm C18, 9.4 × 250 mm reverse phase column, PN-990967-202, flow rate 5.00 mL/min) using the same gradient elution as described in Table 1. The elution of radioactive metabolites was detected using the radiation detector as described above. […] The radioactivity in each organ/tissue was measured using a calibrated automatic gamma counter (2480 Perkin Elmer, Waltham MA, USA) and the tissue uptake was expressed as a percentage of injected dose (ID) per gram (% ID/g). All radioactivity measurements were corrected for decay. Data are shown as average mean± SEM, calculated using replication for each sample.

[2] = Ex vivo biodistribution in healthy CD-1 mice; conditions: for Biodistribution, blood / Biodistribution, bone / Biodistribution, brain / Biodistribution, heart / Biodistribution, kidney / Biodistribution, large intestine / Biodistribution, liver / Biodistribution, lung / Biodistribution, small intestine / Biodistribution, spleen: tail vein injection
Procedure: The liver, pancreas, and brain were collected, washed with saline, placed in water/acetonitrile, and homogenized using the Fisherbrand™ 150 Handheld Homogenizer (Thermo Fisher Scientific, Waltham, MA, USA). The samples were centrifuged at 14,000 relative centrifugal force (rcf) for 5 min (AccuSpin Micro 17, Thermo Fisher Scientific, Waltham, MA, USA). The supernatants were collected and filtered using 0.22 μm organic Millipore-Sigma filters (Oakville, ON, Canada). The clarified filtrate was injected into the HPLC and radioanalytes separated by a reverse phase column (5 μm C18, 9.4 × 250 mm reverse phase column, PN-990967-202, flow rate 5.00 mL/min) using the same gradient elution as described in Table 1. The elution of radioactive metabolites was detected using the radiation detector as described above. […] The mice were euthanized (anesthesia followed by cervical dislocation followed by cardiac puncture and blood draw) at 5, 10, 20, 40, and 60 min p.i., and different organs were harvested (blood, liver, small intestine, kidney, spleen, lung, heart, large intestine, bone, and brain), washed and placed in pre-weighed tubes. The radioactivity in each organ/tissue was measured using a calibrated automatic gamma counter (2480 Perkin Elmer, Waltham MA, USA) and the tissue uptake was expressed as a percentage of injected dose (ID) per gram (% ID/g). All radioactivity measurements were corrected for decay. Data are shown as average mean± SEM, calculated using replication for each sample.

[3] = Micro-PET/CT dynamic imaging; type: in vivo, CD-1 mice
Procedure: The acquisition of dynamic PET data (10 × 10, 8 × 15, 6 × 20, 6 × 30, 4 × 60, 1 × 100, 4 × 100, 6 × 150, 4 × 300) was started immediately after radiotracer injection, followed by a 1 min CT scan. PET/CT images were registered and reconstructed automatically by the GNEXT system. PET images were reconstructed using a 3D-ordered Subset Expectation Maximization algorithm with 24 subsets and 3 iterations. CT images were reconstructed using a Modified Feldkamp algorithm. All data were analyzed using Vivoquant software (IviCRO) (InVicro, Needham, MA, USA). CT images were used to define anatomical regions of interest (ROIs) through PET/CT image co-registration. The quantification of activity concentration in the brain was performed by drawing ROIs and the mean and maximum standard uptake values (SUVs) were determined using the formula: SUV = [(MBq/mL) × (animal wt. (g))/injected dose (MBq)].

[4] = set-up: method as in PMID 34187286; conditions: cited from earlier work
[5] = extrapolated from unbound CLint in mouse liver microsomes, well-stirred model; cited from earlier work

Question: Which “CPA-induced α-Syn aggregation and neurodegeneration” value (α-Syn) does the source give for `NC1CCc2ccccc21` (stereo not drawn) [1-aminoindan] here?
Answer: prevented the CPA-induced α-Syn aggregation and neurodegeneration

Question: For `CCCn1c(=O)c2[nH]c(C3CCCC3)nc2n(CCC)c1=O` [DPCPX], which “CPA-induced α-Syn aggregation and neurodegeneration” value (α-Syn) is on record?
Answer: prevented the CPA-induced α-Syn aggregation and neurodegeneration

Question: Which results are given for `Cn1c(=O)c2c(nc(CCCCCCNC3CCc4ccccc43)n2CCC[18F])n(C)c1=O` (stereo not drawn) [^18F–C8–6–I]?
Answer: Parent compound share of the radioactivity signal [1]: ≥ 95%; Defluorination in vivo (from bone uptake) ([2]; mouse, in vivo): little defluorination occurred in vivo; blood5min/blood20min ([2]; ratio of blood radioactivity): 1.1; blood5min/blood60min ([2]; ratio of blood radioactivity): 1.9; brain5min/brain20min ([2]; ratio of brain uptake): 1.7; brain5min/brain60min ([2]; ratio of brain uptake): 3.4; Biodistribution, blood ([2]; 5 min p.i.): 0.76 ± 0.040 %ID/g; Biodistribution, bone ([2]; 5 min p.i.): 1.00 ± 0.18 %ID/g; Biodistribution, brain ([2]; 5 min p.i.): 0.17 ± 0.014 %ID/g; Biodistribution, heart ([2]; 5 min p.i.): 2.34 ± 0.26 %ID/g; Biodistribution, kidney ([2]; 5 min p.i.): 16.26 ± 1.82 %ID/g; Biodistribution, large intestine ([2]; 5 min p.i.): 2.98 ± 0.94 %ID/g; Biodistribution, liver ([2]; 5 min p.i.): 5.12 ± 1.65 %ID/g; Biodistribution, lung ([2]; 5 min p.i.): 7.03 ± 1.24 %ID/g; Biodistribution, small intestine ([2]; 5 min p.i.): 8.56 ± 2.02 %ID/g; Biodistribution, spleen ([2]; 5 min p.i.): 6.54 ± 0.88 %ID/g; Biodistribution, blood ([2]; 10 min p.i.): 0.78 ± 0.14 %ID/g; Biodistribution, bone ([2]; 10 min p.i.): 1.24 ± 0.44 %ID/g; Biodistribution, brain ([2]; 10 min p.i.): 0.14 ± 0.027 %ID/g; Biodistribution, heart ([2]; 10 min p.i.): 1.77 ± 0.17 %ID/g; Biodistribution, kidney ([2]; 10 min p.i.): 11.86 ± 1.74 %ID/g; Biodistribution, large intestine ([2]; 10 min p.i.): 3.06 ± 0.73 %ID/g; Biodistribution, liver ([2]; 10 min p.i.): 6.91 ± 2.02 %ID/g; Biodistribution, lung ([2]; 10 min p.i.): 5.51 ± 0.44 %ID/g; Biodistribution, small intestine ([2]; 10 min p.i.): 11.18 ± 3.11 %ID/g; Biodistribution, spleen ([2]; 10 min p.i.): 5.49 ± 1.05 %ID/g; Biodistribution, blood ([2]; 20 min p.i.): 0.67 ± 0.19 %ID/g; Biodistribution, bone ([2]; 20 min p.i.): 1.18 ± 0.005 %ID/g; Biodistribution, brain ([2]; 20 min p.i.): 0.10 ± 0.013 %ID/g; Biodistribution, heart ([2]; 20 min p.i.): 1.14 ± 0.040 %ID/g; Biodistribution, kidney ([2]; 20 min p.i.): 11.02 ± 0.48 %ID/g; Biodistribution, large intestine ([2]; 20 min p.i.): 2.83 ± 0.068 %ID/g; Biodistribution, liver ([2]; 20 min p.i.): 6.64 ± 1.44 %ID/g; Biodistribution, lung ([2]; 20 min p.i.): 5.52 ± 0.72 %ID/g; Biodistribution, small intestine ([2]; 20 min p.i.): 13.02 ± 1.24 %ID/g; Biodistribution, spleen ([2]; 20 min p.i.): 5.71 ± 0.69 %ID/g; Biodistribution, blood ([2]; 40 min p.i.): 0.48 ± 0.029 %ID/g; Biodistribution, bone ([2]; 40 min p.i.): 1.04 ± 0.27 %ID/g; Biodistribution, brain ([2]; 40 min p.i.): 0.10 ± 0.011 %ID/g; Biodistribution, heart ([2]; 40 min p.i.): 1.01 ± 0.16 %ID/g; Biodistribution, kidney ([2]; 40 min p.i.): 8.65 ± 1.21 %ID/g; Biodistribution, large intestine ([2]; 40 min p.i.): 2.69 ± 0.26 %ID/g; Biodistribution, liver ([2]; 40 min p.i.): 4.76 ± 0.54 %ID/g; Biodistribution, lung ([2]; 40 min p.i.): 3.00 ± 1.40 %ID/g; Biodistribution, small intestine ([2]; 40 min p.i.): 9.35 ± 1.82 %ID/g; Biodistribution, spleen ([2]; 40 min p.i.): 5.80 ± 0.83 %ID/g; Biodistribution, blood ([2]; 60 min p.i.): 0.39 ± 0.11 %ID/g; Biodistribution, bone ([2]; 60 min p.i.): 1.20 ± 0.34 %ID/g; Biodistribution, brain ([2]; 60 min p.i.): 0.05 ± 0.005 %ID/g; Biodistribution, heart ([2]; 60 min p.i.): 0.49 ± 0.018 %ID/g; Biodistribution, kidney ([2]; 60 min p.i.): 4.27 ± 0.37 %ID/g; Biodistribution, large intestine ([2]; 60 min p.i.): 2.50 ± 0.93 %ID/g; Biodistribution, liver ([2]; 60 min p.i.): 5.74 ± 1.12 %ID/g; Biodistribution, lung ([2]; 60 min p.i.): 1.42 ± 0.22 %ID/g; Biodistribution, small intestine ([2]; 60 min p.i.): 12.33 ± 0.81 %ID/g; Biodistribution, spleen ([2]; 60 min p.i.): 3.79 ± 0.33 %ID/g; Standardized uptake value in the whole brain ([3]; after 50 min): 0.21 SUV; Maximum standardized uptake value in the whole brain ([3]; dynamic PET, tail vein injection): 0.47 SUV

Question: Which “Parent remaining in liver microsomes” value ([4]; 1 h incubation, human, mouse and rat liver microsomes) does the source give for `Cn1c(=O)c2c(nc(CCCCCCNC3CCc4ccccc43)n2CCCF)n(C)c1=O` (stereo not drawn) [^19F–C8–6–I] here?
Answer: significant percentage of the parent ^19F–C8–6–I remained

Question: And the “Defluorination in liver microsomes” value ([4]; mouse, rat and human liver microsomes)?
Answer: No defluorination was observed

Question: What about the “Predicted in vivo clearance in mouse plasma, CLp” value [5] of the same compound?
Answer: 36.0 mL/min/kg
